Results from ChEMBL document CHEMBL2434905, “2-Amino-6-chloro-3,4-dihydroquinazoline: A novel 5-HT3 receptor antagonist with antidepressant character” (Bioorg Med Chem Lett, 2013).

Legend:
[1] = molecular target: 5-hydroxytryptamine receptor 2B (Homo sapiens, UniProt P41595); assay: Displacement of [3H]LSD from human recombinant 5-HT2B receptor expressed in HEK cells after 90 mins by scintillation counting analysis; assay type: cell-based, HEK293
[2] = molecular target: Beta-2 adrenergic receptor (Homo sapiens, UniProt P07550); assay: Displacement of [3H]CGP12177 from human recombinant beta2-adrenoceptor expressed in HEK cells after 90 mins by scintillation counting analysis; assay type: cell-based, HEK293
[3] = molecular target: Muscarinic acetylcholine receptor M3 (Homo sapiens, UniProt P20309); assay: Binding affinity to human recombinant muscarinic M3 receptor expressed in CHO cells after 90 mins by radioligand displacement assay; assay type: cell-based
Mu-type opioid receptor = Mu-type opioid receptor (Homo sapiens, UniProt P35372); assay: Displacement of [3H]DAMGO from human recombinant mu opioid receptor expressed in HEK cells after 90 mins by scintillation counting analysis; assay type: cell-based, HEK293
[4] = molecular target: T1, 5-hydroxytryptamine receptor 3A (Homo sapiens, UniProt P46098); assay: Displacement of [3H]GR65630 from human 5-HT3 receptor expressed in African green monkey COS cells after 90 mins by scintillation counting analysis; assay type: cell-based
T1 sequence (P46098 whole entry): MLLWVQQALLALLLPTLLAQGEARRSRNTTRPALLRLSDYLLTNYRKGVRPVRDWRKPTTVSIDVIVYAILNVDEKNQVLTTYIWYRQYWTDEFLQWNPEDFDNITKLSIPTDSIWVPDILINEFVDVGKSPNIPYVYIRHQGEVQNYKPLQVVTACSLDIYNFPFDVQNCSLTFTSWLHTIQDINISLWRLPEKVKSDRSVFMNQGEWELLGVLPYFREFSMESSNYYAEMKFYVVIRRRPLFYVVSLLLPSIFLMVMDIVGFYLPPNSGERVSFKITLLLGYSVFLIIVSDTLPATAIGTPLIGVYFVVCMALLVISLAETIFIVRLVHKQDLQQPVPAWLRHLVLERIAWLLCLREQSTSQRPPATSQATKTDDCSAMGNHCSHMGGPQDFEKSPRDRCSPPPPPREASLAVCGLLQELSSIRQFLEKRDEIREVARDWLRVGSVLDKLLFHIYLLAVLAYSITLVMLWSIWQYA

[5] = molecular target: Muscarinic acetylcholine receptor M2 (Homo sapiens, UniProt P08172); assay: Binding affinity to human recombinant muscarinic M2 receptor expressed in CHO cells after 90 mins by radioligand displacement assay; assay type: cell-based
[6] = molecular target: Beta-3 adrenergic receptor (Homo sapiens, UniProt P13945); assay: Binding affinity to human recombinant beta3-adrenoceptor expressed in HEK cells after 90 mins by radioligand displacement assay; assay type: cell-based, HEK293
[7] = molecular target: Nicotinic acetylcholine receptor alpha2/beta4 (Homo sapiens, UniProt P02708+P30926); assay: Displacement of [3H]-epibatidine from human alpha2beta4 nAChR transfected in HEK293 cells by scintillation counting analysis; assay type: cell-based
D(3) dopamine receptor = D(3) dopamine receptor (Homo sapiens, UniProt P35462); assay: Displacement of [3H]N-methylspiperone from dopamine D3 receptor (unknown origin) after 90 mins by scintillation counting analysis
[8] = molecular target: Alpha-2B adrenergic receptor (Homo sapiens, UniProt P18089); assay: Displacement of [3H]Rauwolscine from human recombinant alpha2B-adrenoceptor expressed in HEK cells after 90 mins by scintillation counting analysis; assay type: cell-based, HEK293
[9] = molecular target: Kappa-type opioid receptor (Homo sapiens, UniProt P41145); assay: Displacement of [3H]U69593 from kappa opioid receptor (unknown origin) expressed in HEK cells after 90 mins by scintillation counting analysis; assay type: cell-based, HEK293
[10] = molecular target: 5-hydroxytryptamine receptor 5A (Homo sapiens, UniProt P47898); assay: Displacement of [3H]LSD from human recombinant 5-HT5A receptor expressed in CHO cells after 90 mins by scintillation counting analysis; assay type: cell-based
[11] = Displacement of [3H]Muscimol from GABAA in rat brain after 90 mins by scintillation counting analysis; assay type: tissue-based
[12] = molecular target: T2, 5-hydroxytryptamine receptor 3A (Mus musculus, UniProt P23979); assay: Antagonist activity at mouse 5-HT3A receptor expressed in Xenopus oocytes assessed as reduction of 5HT-induced current by two-electrode voltage clamp technique; assay type: cell-based, Oocyte
T2 sequence (P23979 whole entry): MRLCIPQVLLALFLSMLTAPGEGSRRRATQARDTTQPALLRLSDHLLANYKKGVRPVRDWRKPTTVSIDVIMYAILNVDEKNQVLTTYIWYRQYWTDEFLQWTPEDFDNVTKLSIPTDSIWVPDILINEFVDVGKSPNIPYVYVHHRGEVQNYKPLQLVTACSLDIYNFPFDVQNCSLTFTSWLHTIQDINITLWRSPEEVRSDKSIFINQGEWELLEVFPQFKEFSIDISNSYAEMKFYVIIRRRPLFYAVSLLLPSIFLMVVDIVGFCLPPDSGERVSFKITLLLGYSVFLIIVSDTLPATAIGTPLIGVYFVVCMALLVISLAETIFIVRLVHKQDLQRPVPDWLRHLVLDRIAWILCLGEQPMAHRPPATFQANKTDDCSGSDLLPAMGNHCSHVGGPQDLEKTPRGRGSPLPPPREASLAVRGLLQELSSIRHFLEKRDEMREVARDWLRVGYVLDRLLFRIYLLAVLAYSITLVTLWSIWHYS

[13] = molecular target: 5-hydroxytryptamine receptor 6 (Homo sapiens, UniProt P50406); assay: Displacement of [3H]LSD from human recombinant 5-HT6 receptor expressed in HEK cells after 90 mins by scintillation counting analysis; assay type: cell-based, HEK293
[14] = molecular target: 5-hydroxytryptamine receptor 1E (Homo sapiens, UniProt P28566); assay: Displacement of [3H]5-HT from human recombinant 5-HT1E receptor expressed in HEK cells after 90 mins by scintillation counting analysis; assay type: cell-based, HEK293
Histamine H1 receptor = Histamine H1 receptor (Homo sapiens, UniProt P35367); assay: Displacement of [3H]Pyrilamine from human recombinant histamine H1 receptor expressed in HEK cells after 90 mins by scintillation counting analysis; assay type: cell-based, HEK293
D(4) dopamine receptor = D(4) dopamine receptor (Homo sapiens, UniProt P21917); assay: Displacement of [3H]N-methylspiperone from dopamine D4 receptor (unknown origin) after 90 mins by scintillation counting analysis
[15] = molecular target: 5-hydroxytryptamine receptor 7 (Homo sapiens, UniProt P34969); assay: Displacement of [3H]LSD from human recombinant 5-HT7 receptor expressed in HEK cells after 90 mins by scintillation counting analysis; assay type: cell-based, HEK293
Translocator protein = Translocator protein (Rattus norvegicus, UniProt P16257); assay: Displacement of [3H]PK11195 from PBR in rat brain after 90 mins by scintillation counting analysis; assay type: tissue-based
Histamine H3 receptor = Histamine H3 receptor (Homo sapiens, UniProt Q9Y5N1); assay: Displacement of [3H]-alpha-methylhistamine from human recombinant histamine H3 receptor expressed in HEK cells after 90 mins by scintillation counting analysis; assay type: cell-based, HEK293
[16] = molecular target: 5-hydroxytryptamine receptor 4 (Homo sapiens, UniProt Q13639); assay: Displacement of [[3H]GR113808 from human recombinant 5-HT4 receptor after 90 mins by scintillation counting analysis
[17] = molecular target: 5-hydroxytryptamine receptor 1A (Homo sapiens, UniProt P08908); assay: Displacement of [3H]Way100635 from human recombinant 5-HT1A receptor expressed in CHO cells after 90 mins by scintillation counting analysis; assay type: cell-based
[18] = molecular target: Alpha-2A adrenergic receptor (Homo sapiens, UniProt P08913); assay: Displacement of [3H]Rauwolscine from human recombinant alpha2A-adrenoceptor expressed in MDCK cells after 90 mins by scintillation counting analysis; assay type: cell-based
[19] = molecular target: Sodium-dependent serotonin transporter (Homo sapiens, UniProt P31645); assay: Displacement of [3H]cfitalopramfrom human recombinant serotonin transporter expressed in HEK cells after 90 mins by scintillation counting analysis; assay type: cell-based, HEK293
[20] = molecular target: Delta-type opioid receptor (Homo sapiens, UniProt P41143); assay: Displacement of [3H]DADLE from human recombinant delta opioid receptor expressed in HEK cells after 90 mins by scintillation counting analysis; assay type: cell-based, HEK293
[21] = molecular target: Muscarinic acetylcholine receptor M5 (Homo sapiens, UniProt P08912); assay: Binding affinity to human recombinant muscarinic M5 receptor expressed in CHO cells after 90 mins by radioligand displacement assay; assay type: cell-based

D(4) dopamine receptor, sequence (P21917 whole entry): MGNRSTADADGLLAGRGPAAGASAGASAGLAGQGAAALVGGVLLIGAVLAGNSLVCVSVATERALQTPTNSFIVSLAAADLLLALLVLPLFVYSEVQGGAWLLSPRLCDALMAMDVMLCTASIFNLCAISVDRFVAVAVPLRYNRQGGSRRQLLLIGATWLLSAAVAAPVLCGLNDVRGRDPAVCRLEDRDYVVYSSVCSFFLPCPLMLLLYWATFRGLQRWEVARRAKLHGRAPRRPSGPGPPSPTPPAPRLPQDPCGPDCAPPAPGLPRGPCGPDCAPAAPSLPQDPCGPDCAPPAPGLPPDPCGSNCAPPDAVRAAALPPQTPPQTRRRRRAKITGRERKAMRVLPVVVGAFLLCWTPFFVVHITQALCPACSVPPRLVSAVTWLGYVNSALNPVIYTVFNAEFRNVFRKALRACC
5-hydroxytryptamine receptor 4, sequence (Q13639 whole entry): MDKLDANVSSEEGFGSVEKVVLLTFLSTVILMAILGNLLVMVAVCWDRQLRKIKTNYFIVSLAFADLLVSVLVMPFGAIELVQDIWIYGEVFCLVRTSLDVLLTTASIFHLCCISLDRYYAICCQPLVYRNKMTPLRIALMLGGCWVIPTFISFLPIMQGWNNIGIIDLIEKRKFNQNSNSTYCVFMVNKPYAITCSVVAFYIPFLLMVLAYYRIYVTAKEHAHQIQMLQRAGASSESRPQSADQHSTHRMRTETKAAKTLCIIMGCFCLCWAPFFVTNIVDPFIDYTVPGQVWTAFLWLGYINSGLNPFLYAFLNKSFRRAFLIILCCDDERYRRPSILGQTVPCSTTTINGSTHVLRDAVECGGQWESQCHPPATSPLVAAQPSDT
5-hydroxytryptamine receptor 2B, sequence (P41595 whole entry): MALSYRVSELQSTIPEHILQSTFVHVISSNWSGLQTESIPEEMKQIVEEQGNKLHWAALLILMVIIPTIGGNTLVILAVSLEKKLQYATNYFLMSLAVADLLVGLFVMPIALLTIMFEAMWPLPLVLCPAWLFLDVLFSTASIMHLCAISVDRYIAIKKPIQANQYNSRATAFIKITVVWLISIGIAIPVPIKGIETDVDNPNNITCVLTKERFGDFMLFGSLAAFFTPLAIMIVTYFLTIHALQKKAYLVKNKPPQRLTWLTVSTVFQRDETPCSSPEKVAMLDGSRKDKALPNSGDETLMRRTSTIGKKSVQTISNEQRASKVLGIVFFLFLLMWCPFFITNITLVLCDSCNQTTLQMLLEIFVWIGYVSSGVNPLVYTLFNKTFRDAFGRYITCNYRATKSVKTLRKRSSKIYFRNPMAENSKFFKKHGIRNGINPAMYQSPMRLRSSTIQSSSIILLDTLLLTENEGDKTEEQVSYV
Muscarinic acetylcholine receptor M2, sequence (P08172 whole entry): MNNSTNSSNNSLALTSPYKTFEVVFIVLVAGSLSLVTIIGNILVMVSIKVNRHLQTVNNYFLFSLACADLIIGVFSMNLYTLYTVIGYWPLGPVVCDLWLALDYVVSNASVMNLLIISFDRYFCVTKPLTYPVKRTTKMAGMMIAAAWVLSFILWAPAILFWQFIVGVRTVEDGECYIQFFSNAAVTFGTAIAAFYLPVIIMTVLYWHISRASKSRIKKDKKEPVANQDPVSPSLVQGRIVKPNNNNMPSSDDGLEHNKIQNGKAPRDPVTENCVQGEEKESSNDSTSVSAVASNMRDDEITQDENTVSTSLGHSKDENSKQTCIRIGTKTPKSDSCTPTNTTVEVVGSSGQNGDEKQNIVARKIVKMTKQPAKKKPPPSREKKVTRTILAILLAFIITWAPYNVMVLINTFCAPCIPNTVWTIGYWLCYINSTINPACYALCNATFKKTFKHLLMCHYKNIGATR
Nicotinic acetylcholine receptor alpha2/beta4, sequence (P02708 whole entry): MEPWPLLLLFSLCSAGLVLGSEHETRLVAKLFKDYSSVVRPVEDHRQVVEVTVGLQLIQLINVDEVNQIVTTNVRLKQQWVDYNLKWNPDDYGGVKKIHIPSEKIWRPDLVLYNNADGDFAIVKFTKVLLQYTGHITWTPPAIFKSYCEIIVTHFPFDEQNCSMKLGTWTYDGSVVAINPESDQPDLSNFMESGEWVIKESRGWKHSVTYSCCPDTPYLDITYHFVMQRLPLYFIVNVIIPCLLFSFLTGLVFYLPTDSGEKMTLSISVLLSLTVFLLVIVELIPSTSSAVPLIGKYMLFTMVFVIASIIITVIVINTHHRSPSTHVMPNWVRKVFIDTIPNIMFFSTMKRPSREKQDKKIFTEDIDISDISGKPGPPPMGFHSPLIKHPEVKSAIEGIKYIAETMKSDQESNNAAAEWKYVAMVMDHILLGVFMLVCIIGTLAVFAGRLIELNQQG
Nicotinic acetylcholine receptor alpha2/beta4, sequence (P30926 whole entry): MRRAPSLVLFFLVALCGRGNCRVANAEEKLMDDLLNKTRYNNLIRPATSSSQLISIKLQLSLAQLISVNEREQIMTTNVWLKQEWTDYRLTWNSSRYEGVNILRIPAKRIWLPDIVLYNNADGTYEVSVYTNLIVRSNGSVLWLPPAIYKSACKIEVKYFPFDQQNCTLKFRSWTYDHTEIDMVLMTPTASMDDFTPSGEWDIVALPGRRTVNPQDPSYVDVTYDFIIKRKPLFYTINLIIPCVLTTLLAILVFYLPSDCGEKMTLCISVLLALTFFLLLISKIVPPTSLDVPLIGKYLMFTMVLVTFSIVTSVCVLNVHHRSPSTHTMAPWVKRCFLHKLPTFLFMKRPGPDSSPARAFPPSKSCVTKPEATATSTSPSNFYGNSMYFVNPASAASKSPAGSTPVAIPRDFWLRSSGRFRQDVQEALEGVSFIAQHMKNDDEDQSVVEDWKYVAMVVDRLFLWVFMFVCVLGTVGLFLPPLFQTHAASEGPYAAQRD
Beta-3 adrenergic receptor, sequence (P13945 whole entry): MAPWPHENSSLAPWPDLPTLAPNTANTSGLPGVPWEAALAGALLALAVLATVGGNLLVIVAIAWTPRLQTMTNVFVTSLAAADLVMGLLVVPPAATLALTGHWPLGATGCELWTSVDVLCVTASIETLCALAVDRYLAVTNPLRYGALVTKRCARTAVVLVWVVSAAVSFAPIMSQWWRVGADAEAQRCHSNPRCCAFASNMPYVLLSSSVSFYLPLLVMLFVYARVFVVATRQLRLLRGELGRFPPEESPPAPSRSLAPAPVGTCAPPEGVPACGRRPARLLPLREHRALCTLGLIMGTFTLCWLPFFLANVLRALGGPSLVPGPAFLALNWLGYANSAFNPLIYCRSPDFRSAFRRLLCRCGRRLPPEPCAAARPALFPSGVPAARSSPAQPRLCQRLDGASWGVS
5-hydroxytryptamine receptor 1A, sequence (P08908 whole entry): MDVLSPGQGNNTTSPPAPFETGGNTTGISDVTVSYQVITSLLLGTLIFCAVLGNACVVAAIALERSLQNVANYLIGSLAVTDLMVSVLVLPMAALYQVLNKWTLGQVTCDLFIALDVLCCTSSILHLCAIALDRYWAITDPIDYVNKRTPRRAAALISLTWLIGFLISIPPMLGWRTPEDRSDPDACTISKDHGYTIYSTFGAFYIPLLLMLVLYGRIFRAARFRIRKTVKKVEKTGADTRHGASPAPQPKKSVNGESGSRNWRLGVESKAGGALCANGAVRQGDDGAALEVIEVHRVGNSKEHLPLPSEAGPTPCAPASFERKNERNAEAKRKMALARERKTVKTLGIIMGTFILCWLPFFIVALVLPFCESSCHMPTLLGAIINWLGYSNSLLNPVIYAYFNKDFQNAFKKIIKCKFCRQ
5-hydroxytryptamine receptor 7, sequence (P34969 whole entry): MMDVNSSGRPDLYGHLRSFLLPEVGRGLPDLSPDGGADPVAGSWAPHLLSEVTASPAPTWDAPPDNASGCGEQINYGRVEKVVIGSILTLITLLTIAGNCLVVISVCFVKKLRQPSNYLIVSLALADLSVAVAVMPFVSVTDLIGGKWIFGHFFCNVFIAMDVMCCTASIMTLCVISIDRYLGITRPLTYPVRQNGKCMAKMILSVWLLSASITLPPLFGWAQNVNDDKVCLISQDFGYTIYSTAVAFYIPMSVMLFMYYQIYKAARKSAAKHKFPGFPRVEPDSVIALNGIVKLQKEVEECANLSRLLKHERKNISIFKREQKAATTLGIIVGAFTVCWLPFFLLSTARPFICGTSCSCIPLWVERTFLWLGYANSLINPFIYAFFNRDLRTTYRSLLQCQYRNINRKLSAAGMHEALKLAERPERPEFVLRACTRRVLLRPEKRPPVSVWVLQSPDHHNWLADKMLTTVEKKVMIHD
5-hydroxytryptamine receptor 5A, sequence (P47898 whole entry): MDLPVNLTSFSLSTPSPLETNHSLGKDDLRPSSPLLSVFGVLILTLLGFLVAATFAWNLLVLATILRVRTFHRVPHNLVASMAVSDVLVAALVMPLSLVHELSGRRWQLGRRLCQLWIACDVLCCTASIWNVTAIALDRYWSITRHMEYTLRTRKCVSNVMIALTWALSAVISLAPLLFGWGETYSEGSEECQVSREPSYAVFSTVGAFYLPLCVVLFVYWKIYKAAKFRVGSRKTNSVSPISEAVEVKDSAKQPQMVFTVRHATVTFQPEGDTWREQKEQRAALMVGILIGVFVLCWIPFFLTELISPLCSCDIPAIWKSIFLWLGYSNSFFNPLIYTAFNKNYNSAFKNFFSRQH
Kappa-type opioid receptor, sequence (P41145 whole entry): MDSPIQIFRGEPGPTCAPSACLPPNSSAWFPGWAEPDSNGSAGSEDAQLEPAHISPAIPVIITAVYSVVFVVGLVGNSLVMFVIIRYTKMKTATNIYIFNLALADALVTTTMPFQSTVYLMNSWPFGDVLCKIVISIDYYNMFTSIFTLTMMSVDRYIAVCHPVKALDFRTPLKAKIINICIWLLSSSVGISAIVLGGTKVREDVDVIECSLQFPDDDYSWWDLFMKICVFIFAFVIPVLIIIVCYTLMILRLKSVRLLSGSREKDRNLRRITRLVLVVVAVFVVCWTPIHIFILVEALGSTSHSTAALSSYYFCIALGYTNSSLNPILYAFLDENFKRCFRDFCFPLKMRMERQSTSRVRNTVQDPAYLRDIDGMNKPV
Translocator protein, sequence (P16257 whole entry, looked up): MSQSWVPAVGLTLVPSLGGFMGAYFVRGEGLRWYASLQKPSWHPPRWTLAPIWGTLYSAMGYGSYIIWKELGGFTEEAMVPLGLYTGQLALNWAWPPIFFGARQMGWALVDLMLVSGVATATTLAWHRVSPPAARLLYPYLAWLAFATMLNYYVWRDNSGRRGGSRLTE

Ki [1]: 0.565 µM | Ki [2]: > 10 µM | Ki [3]: > 10 µM | Ki (Mu-type opioid receptor): > 10 µM | Ki [4]: 0.08 µM | Ki [5]: > 10 µM | Ki [6]: > 10 µM | Ki [7]: > 10 µM | Ki (D(3) dopamine receptor): > 10 µM | Ki [8]: 0.243 µM | Ki [9]: > 10 µM | Ki [10]: 0.466 µM | Ki [11]: > 10 µM | IC50 [12]: 0.26 µM | Ki [13]: > 10 µM | Ki [14]: > 10 µM | Ki (Histamine H1 receptor): > 10 µM | Ki (D(4) dopamine receptor; read-out: Ki): 5.8 µM | Ki (D(4) dopamine receptor; read-out: pKi (converted)): 5.13 µM | Ki [15]: 1.16 µM | Ki (Translocator protein): > 10 µM | Ki (Histamine H3 receptor): > 10 µM | Ki [16]: > 10 µM | Ki [17]: > 10 µM | Ki [18]: 0.283 µM | Ki [19]: > 10 µM | Ki [20]: > 10 µM | Ki [21]: > 10 µM
Structure (SMILES): Cl.NC1=Nc2ccc(Cl)cc2CN1
